Measurements as given in PubChem BioAssay (NCI).
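Dose response: 5 concentrations. Exposure: 48 h. Format: 96-well plates. Endpoint: linear interpolation; highest concentration if not reached. GI50 marks 50% less growth. At the TGI there is no net growth.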

Assays:
Experiment in all cases: NCI-60 cell line screen, 48 h
[1] = tested on: KM12 colon
[2] = tested on: HT29 colon
[3] = tested on: IGROV1 ovarian
[4] = tested on: NCI-H522 lung
[5] = tested on: CCRF-CEM leukemia
[6] = tested on: SF-539 CNS
[7] = tested on: LOX IMVI melanoma
[8] = tested on: SK-MEL-28 melanoma
[9] = tested on: ACHN renal
[10] = tested on: SK-MEL-5 melanoma
[11] = tested on: A498 renal
[12] = tested on: M14 melanoma
[13] = tested on: RPMI-8226 leukemia
[14] = tested on: HOP-92 NSCLC
[15] = tested on: SW-620 colon
[16] = tested on: NCI/ADR-RES ovarian
[17] = tested on: PC-3 prostate
[18] = tested on: COLO 205 colon
[19] = tested on: T-47D breast
[20] = tested on: SNB-75 CNS
[21] = tested on: SN12C renal
[22] = tested on: HS 578T breast
[23] = tested on: MCF7 breast
[24] = tested on: MALME-3M melanoma
[25] = tested on: NCI-H226 lung
[26] = tested on: SK-OV-3 ovarian
[27] = tested on: SF-295 CNS
[28] = tested on: UACC-257 melanoma
[29] = tested on: MDA-MB-435
[30] = tested on: HCT-15 colon
[31] = tested on: HCT-116 colon
[32] = tested on: A549 NSCLC
[33] = tested on: SF-268 CNS
[34] = tested on: DU-145 prostate
[35] = tested on: CAKI-1 renal
[36] = tested on: HL-60(TB) leukemia
[37] = tested on: HCC-2998 colon
[38] = tested on: OVCAR-5 ovarian
[39] = tested on: UO-31 renal
[40] = tested on: BT-549 breast
[41] = tested on: SK-MEL-2 melanoma
[42] = tested on: 786-0 renal
[43] = tested on: RXF 393 renal
[44] = tested on: MDA-MB-231 breast
[45] = tested on: NCI-H460 lung
[46] = tested on: OVCAR-4 ovarian
[47] = tested on: K-562 leukemia
[48] = tested on: HOP-62 NSCLC
[49] = tested on: TK-10 renal
[50] = tested on: SNB-19 CNS
[51] = tested on: U251 CNS
[52] = tested on: EKVX NSCLC
[53] = tested on: OVCAR-8 ovarian
[54] = tested on: UACC-62 melanoma

Q: For `CS(=O)(=O)c1nccc(-c2c(-c3cccc(OCc4ccc(Cl)c(C(F)(F)F)c4)c3)nc3sccn23)n1`, which GI50 [1] is on record?
A: 9.47 µM

Q: And the TGI [1]?
A: 17.8 µM

Q: What about the GI50 [2] of the same compound?
A: 7.99 µM

Q: What about the TGI [2] of the same compound?
A: 16.3 µM

Q: What about the GI50 [3] of the same compound?
A: 1.64 µM

Q: What about the TGI [3] of the same compound?
A: 5.95 µM

Q: What about the GI50 [4] of the same compound?
A: 1.65 µM

Q: What about the TGI [4] of the same compound?
A: 8.06 µM

Q: What about the GI50 [5] of the same compound?
A: 1.67 µM

Q: And the TGI [5]?
A: > 50 µM

Q: What about the GI50 [6] of the same compound?
A: 7.64 µM

Q: And the TGI [6]?
A: 15 µM

Q: What about the GI50 [7] of the same compound?
A: 0.809 µM

Q: And the TGI [7]?
A: 1.63 µM

Q: What about the GI50 [8] of the same compound?
A: 6.48 µM

Q: What about the TGI [8] of the same compound?
A: 13.1 µM

Q: What about the GI50 [9] of the same compound?
A: 5.6 µM

Q: And the TGI [9]?
A: 11.6 µM

Q: What about the GI50 [10] of the same compound?
A: 7.98 µM

Q: What about the TGI [10] of the same compound?
A: 14.9 µM

Q: And the GI50 [11]?
A: 7.15 µM

Q: What about the TGI [11] of the same compound?
A: 13.8 µM

Q: What about the GI50 [12] of the same compound?
A: 6.93 µM

Q: What about the TGI [12] of the same compound?
A: 14.1 µM

Q: What about the GI50 [13] of the same compound?
A: 1.33 µM

Q: And the TGI [13]?
A: 3.64 µM

Q: And the GI50 [14]?
A: 2.17 µM

Q: What about the TGI [14] of the same compound?
A: 9.74 µM

Q: And the GI50 [15]?
A: 1.79 µM

Q: And the TGI [15]?
A: 6.84 µM

Q: And the GI50 [16]?
A: 9 µM

Q: What about the TGI [16] of the same compound?
A: 19.1 µM

Q: And the GI50 [17]?
A: 1.8 µM

Q: What about the TGI [17] of the same compound?
A: 6.61 µM

Q: And the GI50 [18]?
A: 7.02 µM

Q: And the TGI [18]?
A: 13.9 µM

Q: And the GI50 [19]?
A: 0.881 µM

Q: What about the TGI [19] of the same compound?
A: 1.82 µM

Q: And the GI50 [20]?
A: 6.74 µM

Q: And the TGI [20]?
A: 17.9 µM

Q: What about the GI50 [21] of the same compound?
A: 7.07 µM

Q: And the TGI [21]?
A: 23.1 µM

Q: And the GI50 [22]?
A: 1.69 µM

Q: What about the TGI [22] of the same compound?
A: 8.73 µM

Q: And the GI50 [23]?
A: 0.937 µM

Q: What about the TGI [23] of the same compound?
A: 1.98 µM

Q: What about the GI50 [24] of the same compound?
A: 7.27 µM

Q: What about the TGI [24] of the same compound?
A: 14.6 µM

Q: What about the GI50 [25] of the same compound?
A: 2.4 µM

Q: And the TGI [25]?
A: 11.9 µM

Q: What about the GI50 [26] of the same compound?
A: 10.3 µM

Q: What about the TGI [26] of the same compound?
A: 33.7 µM

Q: And the GI50 [27]?
A: 7.15 µM

Q: And the TGI [27]?
A: 15.2 µM

Q: And the GI50 [28]?
A: 4.04 µM

Q: And the TGI [28]?
A: 10.8 µM

Q: What about the GI50 [29] of the same compound?
A: 9.02 µM

Q: And the TGI [29]?
A: 17.9 µM

Q: What about the GI50 [30] of the same compound?
A: 1.02 µM

Q: And the TGI [30]?
A: 2.42 µM

Q: And the GI50 [31]?
A: 6.53 µM

Q: And the TGI [31]?
A: 12.9 µM

Q: What about the GI50 [32] of the same compound?
A: 18.1 µM

Q: And the TGI [32]?
A: > 50 µM

Q: And the GI50 [33]?
A: 8.49 µM

Q: And the TGI [33]?
A: 17.6 µM

Q: What about the GI50 [34] of the same compound?
A: 5.01 µM

Q: What about the TGI [34] of the same compound?
A: 10.8 µM

Q: And the GI50 [35]?
A: 7.54 µM

Q: And the TGI [35]?
A: 14.7 µM

Q: What about the GI50 [36] of the same compound?
A: 0.997 µM

Q: And the TGI [36]?
A: 2.52 µM

Q: What about the GI50 [37] of the same compound?
A: 0.91 µM

Q: And the TGI [37]?
A: 1.68 µM

Q: What about the GI50 [38] of the same compound?
A: 8.78 µM

Q: And the TGI [38]?
A: 18.8 µM

Q: What about the GI50 [39] of the same compound?
A: 7.16 µM

Q: And the TGI [39]?
A: 13.7 µM

Q: What about the GI50 [40] of the same compound?
A: 1.52 µM

Q: What about the TGI [40] of the same compound?
A: 5.51 µM

Q: What about the GI50 [41] of the same compound?
A: 3.31 µM

Q: And the TGI [41]?
A: 9.61 µM

Q: And the GI50 [42]?
A: 8.45 µM

Q: And the TGI [42]?
A: 15.3 µM

Q: What about the GI50 [43] of the same compound?
A: 4.31 µM

Q: What about the TGI [43] of the same compound?
A: 10.9 µM

Q: And the GI50 [44]?
A: 1.07 µM

Q: What about the TGI [44] of the same compound?
A: 2.38 µM

Q: And the GI50 [45]?
A: 2 µM

Q: What about the TGI [45] of the same compound?
A: 7.28 µM

Q: And the GI50 [46]?
A: 6.46 µM

Q: What about the TGI [46] of the same compound?
A: 13.8 µM

Q: What about the GI50 [47] of the same compound?
A: 2.1 µM

Q: What about the TGI [47] of the same compound?
A: > 50 µM

Q: What about the GI50 [48] of the same compound?
A: 7.26 µM

Q: And the TGI [48]?
A: 14.1 µM

Q: What about the GI50 [49] of the same compound?
A: 7.99 µM

Q: And the TGI [49]?
A: 14.9 µM

Q: And the GI50 [50]?
A: 6.53 µM

Q: And the TGI [50]?
A: 13 µM

Q: And the GI50 [51]?
A: 7.53 µM

Q: What about the TGI [51] of the same compound?
A: 14.4 µM

Q: What about the GI50 [52] of the same compound?
A: 6.92 µM

Q: And the TGI [52]?
A: 14.4 µM

Q: And the GI50 [53]?
A: 7.09 µM

Q: And the TGI [53]?
A: 13.8 µM

Q: And the GI50 [54]?
A: 8.49 µM

Q: And the TGI [54]?
A: 16.9 µM
